# The source made the active and inactive calls. The calls are words filed in the database; no cut-off is given here. *1 amine or outer side, *2 acyl side, *3 side chain or, on linkers, in order; H or OH if unused. Where a SMILES comes first, the peptide text is derived from it. [ ]: non-standard residue; d: D form. The star is where a group is joined. GluureaLys(ε-3-ClBenzyl) = O=C(O)CC[C@H](NC(=O)N[C@@H](CCCCN(Cc1cccc(Cl)c1)*)C(=O)O)C(=O)O; Dolaproine = CO[C@@H]([C@@H]1CCCN1)[C@@H](C)C(=O)O; Dil = CC[C@H](C)[C@H](NC)[C@@H](CC(=O)O)OC; X1 = O=C(CCCc1cn(CCCN[*:1])nn1)[*:2]; PABC = O=C(OCc1ccc(N[*:1])cc1)[*:2]; X2 = C[C@@H](N*)[C@@H](O)c1ccccc1; Cit = NC(=O)NCCC[C@H](N)C(=O)O; Suc = O=C(CCC(=O)[*:2])[*:1]; NMeV = CN[C@H](C(=O)O)C(C)C; Ahx = NCCCCCC(=O)O
# How the values were obtained:
# Salmonella typhimurium [1] = experiment: Mutagenecity in Salmonella typhimurium TA97 in presence of metabolic activation system at 10 ug/ml by Ames test; format: toxicity, organism-based; conditions: salmonella enterica subsp. enterica serovar typhimurium; dose 10 µg/ml
# [2] = Toxicity in rabbit assessed as morphological changes in brain sulcus at 81 to 122 microg/kg, iv; format: tissue-based, Oryctolagus cuniculus; conditions: in vivo, dose 81-122 µg/kg
# [3] = AUC (0 to t) in rabbit at 0.81 mg/kg, iv; format: ADME, organism-based, Oryctolagus cuniculus; parameters: dose 0.81 mg/kg; conditions: in vivo
# [4] = Toxicity in rabbit assessed as morphological changes in brain ventricle at 81 to 122 microg/kg, iv; format: tissue-based, Oryctolagus cuniculus; conditions: in vivo, dose 81-122 µg/kg
# [5] = Chronic toxicity in rat assessed as mortality rate at 10 microg/kg, iv dosed measured after 3 days; format: organism-based; conditions: in vivo, 0.01 mg/kg, dose 10 µg/kg, time 3 day, read-out: Activity
# [6] = Stability of the compound in human liver microsome; format: ADME; conditions: microsomes
# Salmonella typhimurium [7] = experiment: Mutagenecity in Salmonella typhimurium TA97 without metabolic activation system at 1000 ug/ml by Ames test; format: toxicity, organism-based; conditions: salmonella enterica subsp. enterica serovar typhimurium; dose 1000 µg/ml
# [8] = Toxicity in rabbit assessed as morphological changes in adrenal medulla at 81 to 122 microg/kg, iv; parameters: species or system Oryctolagus cuniculus; conditions: in vivo, dose 81-122 µg/kg
# [9] = Toxicity in rabbit assessed as morphological changes in cerebral membrane at 81 to 122 microg/kg, iv; parameters: species or system Oryctolagus cuniculus; conditions: in vivo, dose 81-122 µg/kg
# [10] = Toxicity in rat assessed as morphological changes in pancreas at 150 to 225 microg/kg, iv; format: tissue-based; conditions: in vivo, dose 150-225 µg/kg
# [11] = Toxicity in rat assessed as morphological changes in bronchi at 150 to 225 microg/kg, iv; conditions: in vivo, dose 150-225 µg/kg
# Salmonella typhimurium [12] = experiment: Mutagenecity in Salmonella typhimurium TA98 without metabolic activation system at 10 ug/ml by Ames test; format: toxicity, organism-based; conditions: salmonella enterica subsp. enterica serovar typhimurium; dose 10 µg/ml
# Salmonella typhimurium [13] = experiment: Mutagenecity in Salmonella typhimurium TA97 without metabolic activation system at 10 ug/ml by Ames test; format: toxicity, organism-based; conditions: salmonella enterica subsp. enterica serovar typhimurium; dose 10 µg/ml
# Oryctolagus cuniculus = species on record: Oryctolagus cuniculus; experiment: Induction of morphological change in heart of rabbit; format: organism-based; conditions: in vivo
# [14] = Toxicity in rat assessed as morphological changes in thymus at 150 to 225 microg/kg, iv; format: tissue-based; conditions: in vivo, dose 150-225 µg/kg
# [15] = Stability of compound in pH 5.5 assessed as hydrolysis measured within 96 hrs; format: physicochemical; conditions: buffer, pH 5.5, 96 h
# [16] = Toxicity in rabbit assessed as morphological changes in heart at 81 to 122 microg/kg, iv; format: tissue-based, Oryctolagus cuniculus; conditions: in vivo, dose 81-122 µg/kg
# [17] = Toxicity in rat assessed as morphological changes in heart muscle at 150 to 225 microg/kg, iv; format: tissue-based; conditions: in vivo, dose 150-225 µg/kg
# CWR22R = experiment: Antitumor activity against human 22Rv1 cells xenografted in mouse assessed as tumour growth inhibition at 0.3 mg/kg, ip daily treated for 5 days after 18 days of tumor implantation measured upto 10 days; format: functional; conditions: 22Rv1, ip, 120 h, time 5 day, read-out: TGI
# [18] = Toxicity in rat assessed as morphological changes in spleen pulp at 150 to 225 microg/kg, iv; format: tissue-based; conditions: in vivo, dose 150-225 µg/kg
# [19] = Toxicity in rabbit assessed as morphological changes in urinary bladder at 81 to 122 microg/kg, iv; parameters: species or system Oryctolagus cuniculus; conditions: in vivo, dose 81-122 µg/kg
# [20] = Toxicity in rabbit assessed as morphological changes in pancreas at 81 to 122 microg/kg, iv; format: tissue-based, Oryctolagus cuniculus; conditions: in vivo, dose 81-122 µg/kg
# [21] = Toxicity in rat assessed as morphological changes in lungs at 150 to 225 microg/kg, iv; conditions: in vivo, dose 150-225 µg/kg
# [22] = Toxicity in rat assessed as morphological changes in heart valve at 150 to 225 microg/kg, iv; format: tissue-based; conditions: in vivo, dose 150-225 µg/kg
# Cytochrome P450 2C19 = Cytochrome P450 2C19 (Homo sapiens, UniProt P33261); experiment: Drug metabolism assessed as human liver microsome CYP2C19-mediatd metabolism; format: ADME; conditions: microsomes
# Chain of Cytochrome P450 2C19 (P33261 whole entry): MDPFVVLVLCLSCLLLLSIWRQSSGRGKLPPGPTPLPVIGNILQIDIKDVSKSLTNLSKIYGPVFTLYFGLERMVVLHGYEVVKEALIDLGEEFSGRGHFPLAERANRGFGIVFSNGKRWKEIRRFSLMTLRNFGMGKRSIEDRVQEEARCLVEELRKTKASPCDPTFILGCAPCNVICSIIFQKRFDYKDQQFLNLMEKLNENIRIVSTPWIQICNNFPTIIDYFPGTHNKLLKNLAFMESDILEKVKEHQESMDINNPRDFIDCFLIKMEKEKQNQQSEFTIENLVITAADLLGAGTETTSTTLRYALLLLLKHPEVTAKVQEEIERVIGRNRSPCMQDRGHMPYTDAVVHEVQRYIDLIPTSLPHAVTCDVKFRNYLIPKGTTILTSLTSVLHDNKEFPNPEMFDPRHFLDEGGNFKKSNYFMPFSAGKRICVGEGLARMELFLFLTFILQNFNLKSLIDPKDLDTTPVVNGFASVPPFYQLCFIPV
# [23] = Toxicity in rat assessed as morphological changes in mucosae of mouth at 150 to 225 microg/kg, iv; format: tissue-based; conditions: in vivo, dose 150-225 µg/kg
# [24] = Toxicity in rat assessed as morphological changes in brain ventricle at 150 to 225 microg/kg, iv; format: tissue-based; conditions: in vivo, dose 150-225 µg/kg
# [25] = Toxicity in rabbit assessed as thrombosis at 81 to 122 microg/kg, iv; parameters: species or system Oryctolagus cuniculus; conditions: in vivo, dose 81-122 µg/kg
# [26] = Initial plasma concentration in rabbit plasma at 0.81 mg/kg, iv; format: ADME, organism-based, Oryctolagus cuniculus
# [27] = Stability of the compound in mouse liver microsome; format: ADME; conditions: microsomes
# Cathepsin B = Cathepsin B (Homo sapiens, UniProt P07858); experiment: Stability of compound assessed as recombinant cathepsin B (unknown origin) mediated hydrolysis; format: ADME
# [28] = Volume of distribution in Wistar rat at 1.5 mg/kg, iv; format: ADME, organism-based; conditions: in vivo
# Salmonella typhimurium [29] = experiment: Mutagenecity in Salmonella typhimurium TA100 in presence of metabolic activation system at 10000 ug/ml by Ames test; format: toxicity, organism-based; conditions: salmonella enterica subsp. enterica serovar typhimurium; dose 10000 µg/ml
# [30] = Mean residence time (0 to t) in Wistar rat at 1.5 mg/kg, iv; format: ADME, organism-based; conditions: in vivo
# [31] = Toxicity in rabbit assessed as morphological changes in bronchi at 81 to 122 microg/kg, iv; parameters: species or system Oryctolagus cuniculus; conditions: in vivo, dose 81-122 µg/kg
# [32] = Toxicity in rat assessed as morphological changes in cerebrum at 150 to 225 microg/kg, iv; format: tissue-based; conditions: in vivo, dose 150-225 µg/kg
# [33] = Elimination rate constant in Wistar rat at 1.5 mg/kg, iv; format: ADME, organism-based; conditions: in vivo
# [34] = Clearance in Wistar rat at 1.5 mg/kg, iv; format: ADME, organism-based; conditions: in vivo
# PC-3 = experiment: Induction morphological changes in human PC-3 cells assessed as decrease in cell membrane stiffness measured immediately after MMAE addition; format: functional, cell-based; conditions: time hrs <=1
# Salmonella typhimurium [35] = experiment: Mutagenecity in Salmonella typhimurium TA100 without metabolic activation system at 1 ug/ml by Ames test; format: toxicity, organism-based; conditions: salmonella enterica subsp. enterica serovar typhimurium; dose 1 µg/ml
# Cytochrome P450 2B6 = molecular target: T1, Cytochrome P450 2B6 (Homo sapiens, UniProt P20813); experiment: Drug metabolism assessed as human liver microsome CYP2B6-mediatd metabolism; format: ADME; conditions: microsomes
# T1 sequence (P20813 whole entry): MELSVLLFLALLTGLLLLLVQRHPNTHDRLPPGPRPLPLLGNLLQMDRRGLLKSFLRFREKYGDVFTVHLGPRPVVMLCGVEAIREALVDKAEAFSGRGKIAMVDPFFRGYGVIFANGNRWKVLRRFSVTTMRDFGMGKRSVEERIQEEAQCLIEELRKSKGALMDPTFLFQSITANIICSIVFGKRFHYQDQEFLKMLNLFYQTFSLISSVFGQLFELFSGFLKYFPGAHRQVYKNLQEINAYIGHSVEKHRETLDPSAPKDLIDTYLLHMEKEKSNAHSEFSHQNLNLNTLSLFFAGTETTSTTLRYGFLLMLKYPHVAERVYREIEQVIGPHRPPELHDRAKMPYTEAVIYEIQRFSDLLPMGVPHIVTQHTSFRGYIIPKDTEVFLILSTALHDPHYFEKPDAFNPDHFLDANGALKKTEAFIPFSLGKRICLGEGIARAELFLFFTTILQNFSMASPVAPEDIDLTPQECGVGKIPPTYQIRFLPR
structure (smiles),measurement,setting,value
CC[C@H](C)[C@@H]([C@@H](CC(=O)N1CCC[C@H]1[C@H](OC)[C@@H](C)C(=O)N[C@H](C)[C@@H](O)c1ccccc1)OC)N(C)C(=O)[C@@H](NC(=O)[C@H](C(C)C)N(C)C(=O)OCc1ccc(NC(=O)[C@H](CCCNC(N)=O)NC(=O)[C@@H](NC(=O)CCCc2cn(CCCNC(=O)[C@H](Cc3ccc(O)cc3)NC(=O)[C@H](Cc3ccccc3)NC(=O)CCC(=O)NCCCCCC(=O)N(CCCC[C@H](NC(=O)N[C@@H](CCC(=O)O)C(=O)O)C(=O)O)Cc3cccc(Cl)c3)nn2)C(C)C)cc1)C(C)C ({GluureaLys(ε-3-ClBenzyl)-Ahx-Suc}-FY[X1]V[Cit][PABC][NMeV]V[Dil][Dolaproine]-X2),Activity,Salmonella typhimurium [1],Non-Toxic
same,Activity,[2],Non-Toxic
same,AUC(0-t),[3],31000 ng·h/mL
same,Activity,[4],Non-Toxic
same,mortality at 72 h,[5],90%
same,Stability,[6],Unstable
same,Activity,Salmonella typhimurium [7],Non-Toxic
same,Activity,[8],Non-Toxic
same,Activity,[9],Non-Toxic
same,Activity,[10],Non-Toxic
same,Activity,[11],Non-Toxic
same,Activity,Salmonella typhimurium [12],Non-Toxic
same,Activity,Salmonella typhimurium [13],Non-Toxic
same,Activity,Oryctolagus cuniculus,Non-Toxic
same,Activity,[14],Non-Toxic
same,Stability,[15],Stable
same,Activity,[16],Non-Toxic
same,Activity,[17],Non-Toxic
same,inhibition in vivo at 0.3 mg/kg,CWR22R,70%
same,Activity,[18],Non-Toxic
same,Activity,[19],Non-Toxic
same,Activity,[20],Non-Toxic
same,Activity,[21],Non-Toxic
same,Activity,[22],Non-Toxic
same,Drug metabolism,Cytochrome P450 2C19,Metabolite_Notdetected
same,Activity,[23],Non-Toxic
same,Activity,[24],Non-Toxic
same,Activity,[25],Toxic
same,C0,[26],11000 ng/mL
same,Stability,[27],Unstable
same,Stability,Cathepsin B,Stable
same,Vd,[28],0.126 L/kg
same,Activity,Salmonella typhimurium [29],Non-Toxic
same,MRT last,[30],3.8 h
same,Activity,[31],Non-Toxic
same,Activity,[32],Non-Toxic
same,k el,[33],4.17e-05 s⁻¹
same,clearance,[34],0.317 mL/min/kg
same,Activity,PC-3,inactive
same,Activity,Salmonella typhimurium [35],Non-Toxic
same,Drug metabolism,Cytochrome P450 2B6,Metabolite_Notdetected
